Where two headings read alike, the source gives them in different places. One block for each compound: values may come before it.
Biological target: BTK, recombinant human catalytic domain (aa 393-659) (Homo sapiens (Human), UniProt Q06187)
Assay: In vitro BTK kinase activity measured by time-resolved fluorescence resonance energy transfer (trFRET)
Assay type: biochemical
Settings: read-out: Btk IC50
[1] = trFRET, 0.001 mM ATP, biotin-TYR1 peptide substrate

BTK, recombinant human catalytic domain (aa 393-659), sequence (Q06187 393-659): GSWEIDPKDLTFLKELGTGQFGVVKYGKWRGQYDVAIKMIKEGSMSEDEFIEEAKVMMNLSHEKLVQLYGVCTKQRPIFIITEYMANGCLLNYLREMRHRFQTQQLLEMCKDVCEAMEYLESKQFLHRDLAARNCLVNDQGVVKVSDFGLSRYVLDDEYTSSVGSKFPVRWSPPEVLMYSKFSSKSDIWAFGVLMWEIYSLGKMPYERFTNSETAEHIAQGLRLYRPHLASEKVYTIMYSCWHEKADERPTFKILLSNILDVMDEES

- IC50 [1]: < 100 nM
SMILES: CC(=O)N1CC=C(c2cc3c(-c4cccc(NC(=O)c5ccc(C6CC6)cc5)c4C)ccc(C(N)=O)c3[nH]2)CC1 [A.3.6]

- IC50: < 100 nM
SMILES: Cc1cnc(C(=O)Nc2cccc(-c3ccc(C(N)=O)c4[nH]c(C5=CCN(S(C)(=O)=O)CC5)cc34)c2C)s1 [D.7.32]

- IC50 [1]: 100 to 1000 nM
SMILES: C=CC(=O)N1CC([C@H](C)c2ccc(C(N)=O)c3[nH]ccc23)C1 [28 (S), (S)-4-(1-(1-Acryloylazetidin-3-yl)ethyl)-1H-indole-7-carboxamide]

- IC50 [1]: < 100 nM
SMILES: Cc1c(NC(=O)c2nccs2)cccc1-c1ccc(C(N)=O)c2[nH]c(-c3cccnc3)cc12 [A.7.8]

- IC50: < 100 nM
SMILES: Cc1c(NC(=O)CCN2CCN(C)CC2)cccc1-c1ccc(C(N)=O)c2[nH]c(C3=CCN(S(C)(=O)=O)CC3)cc12 [D.7.27]

- IC50: < 100 nM
SMILES: Cc1c(NC(=O)C2=CCCCC2)cccc1-c1ccc(C(N)=O)c2[nH]c(C3=CCN(S(C)(=O)=O)CC3)cc12 [D.7.19]

- IC50: < 100 nM
SMILES: C=CC(=O)Nc1cc(-c2ccc(C(N)=O)c3[nH]ccc23)ccc1C#N [E.1.31]

- IC50: < 100 nM
SMILES: C=CC(=O)Nc1cccc(-c2ncc(C(N)=O)c3[nH]ccc23)c1 [E.1.10]

- IC50 [1]: 1000 to 10000 nM
SMILES: C=C(CC)C(=O)Nc1cccc(-c2ccc(C(N)=O)c3[nH]ccc23)c1C [D.8.11]

- IC50 [1]: 1000 to 10000 nM
SMILES: C/C(O)=C(/C#N)C(=O)Nc1cccc(-c2ccc(C(N)=O)c3[nH]ccc23)c1 [Example 7, (E)-4-(3-(2-Cyano-3-hydroxybut-2-enamido)phenyl)-1H -indole-7-carboxamide]

- IC50 [1]: 1000 to 10000 nM
SMILES: CN1CCC=C(C(=O)Nc2cccc(-c3ccc(C(N)=O)c4[nH]ccc34)c2)C1 [E.2.2]

Continued, compound first:

SMILES: C=CC(=O)N[C@@H]1CCC[C@H](c2ccc(C(N)=O)c3[nH]ccc23)C1 (relative stereo) [Example 8, 4-(cis-3-Acrylamidocyclohexyl)-1H-indole-7-carboxamide]
- IC50 [1]: < 100 nM

SMILES: Cc1c(-c2ccc(C(N)=O)c3[nH]c(C4=CCOCC4)cc23)cccc1-n1cnc2ccc(F)cc2c1=O [A.11.2]
- IC50 [1]: < 100 nM

SMILES: C=CC(=O)N1CCO[C@H](c2ccc(C(N)=O)c3[nH]c(-c4cnn(C)c4)cc23)C1 [E.9.23]
- IC50: < 100 nM

SMILES: Cc1c(NC(=O)c2nccs2)cccc1-c1ccc(C(N)=O)c2[nH]c(-c3ccccc3CNC(=O)CCN(C)C)cc12 [D.1.4]
- IC50 [1]: 100 to 1000 nM

SMILES: NC(=O)c1ccc(I)c2cc(-c3cccnc3)[nH]c12 [F.1, 4-iodo-2-(pyridin-3-yl)-1H-indole-7-carboxamide]
- IC50 [1]: 100 to 1000 nM

SMILES: Cc1c(-c2ccc(C(N)=O)c3[nH]c(C4=CCNC4)cc23)cccc1-n1cnc2ccccc2c1=O [G.1, 2-(2,5-Dihydro-1H-pyrrol-3-yl)-4-(2-methyl-3-(4-oxoquinazolin-3(4H)-yl)phenyl)-1H-indole-7-carboxamide]
- IC50 [1]: < 100 nM

SMILES: Cc1nc(C(=O)NC2CCCN(c3ccc(C(N)=O)c4[nH]c(C5=CCN(S(C)(=O)=O)CC5)cc34)C2)co1 (stereo not drawn) [O.1.5*]
- IC50: < 100 nM

SMILES: C=CC(=O)N1CCC[C@@H](c2cnc(C(N)=O)c3[nH]ccc23)C1 [E.9.51]
- IC50: 100 to 1000 nM

SMILES: Cc1c(-c2ccc(C(N)=O)c3[nH]c(-c4cnn(C)c4)cc23)cccc1-n1cnc2ccc(F)cc2c1=O [A.10.2]
- IC50 [1]: < 100 nM

SMILES: CCOC(=O)N1CC=C(c2cc3c(-c4cccc(-n5cnc6ccccc6c5=O)c4C)ccc(C(N)=O)c3[nH]2)C1 [E.6.1]
- IC50: < 100 nM

SMILES: Cc1c(-c2ccc(C(N)=O)c3[nH]c(-c4cnn(CC(C)(C)O)c4)cc23)cccc1-n1cnc2ccc(F)cc2c1=O [A.14.1]
- IC50 [1]: < 100 nM

SMILES: C=CC(=O)N1CCOC[C@H](c2cnc(C(N)=O)c3[nH]ccc23)C1 [Example 3.2]
- IC50: 100 to 1000 nM

SMILES: Cc1c(-c2ccc(C(N)=O)c3[nH]c(-c4cnn(C)c4)cc23)cccc1-n1cnc2ccccc2c1=O [A.10.1]
- IC50 [1]: < 100 nM

SMILES: C=CC(=O)N1CC(N(C)c2ccc(C(N)=O)c3[nH]c(-c4ccc5c(c4)COCC5)cc23)C1 [E.9.3]
- IC50: < 100 nM

SMILES: C=CC(=O)N1CC(N(C)c2ccc(C(N)=O)c3[nH]c(-c4ccc5c(c4)CCN(CC)C5)cc23)C1 [E.9.17]
- IC50: < 100 nM

SMILES: C#CC(=O)N1CC(N(C)c2ccc(C(N)=O)c3[nH]c(C)cc23)C1 [D.10.1]
- IC50 [1]: < 100 nM
